Experiments:
[1] = target: T1, Cytochrome P450 11B2, mitochondrial (Homo sapiens, UniProt P19099); experiment: Inhibition of human CYP11B2 expressed in Schizosaccharomyces pombe at 500 nM
T1 sequence (P19099 whole entry): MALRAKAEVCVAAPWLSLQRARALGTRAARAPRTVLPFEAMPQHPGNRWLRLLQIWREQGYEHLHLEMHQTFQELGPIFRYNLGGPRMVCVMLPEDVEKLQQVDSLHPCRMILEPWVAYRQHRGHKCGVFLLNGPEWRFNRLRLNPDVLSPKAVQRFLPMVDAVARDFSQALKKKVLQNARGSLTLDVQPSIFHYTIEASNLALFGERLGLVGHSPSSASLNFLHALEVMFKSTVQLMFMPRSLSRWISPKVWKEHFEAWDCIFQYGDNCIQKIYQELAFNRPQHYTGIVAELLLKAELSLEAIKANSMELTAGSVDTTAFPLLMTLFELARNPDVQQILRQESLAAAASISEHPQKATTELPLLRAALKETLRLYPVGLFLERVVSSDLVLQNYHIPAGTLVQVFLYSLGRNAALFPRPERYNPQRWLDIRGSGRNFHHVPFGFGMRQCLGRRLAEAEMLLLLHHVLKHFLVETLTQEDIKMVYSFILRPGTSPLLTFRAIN

[2] = target: T2, Cytochrome P450 11B1, mitochondrial (Homo sapiens, UniProt P15538); experiment: Inhibition of human CYP11B1 expressed in V79 11B1 cells
T2 sequence (P15538 whole entry): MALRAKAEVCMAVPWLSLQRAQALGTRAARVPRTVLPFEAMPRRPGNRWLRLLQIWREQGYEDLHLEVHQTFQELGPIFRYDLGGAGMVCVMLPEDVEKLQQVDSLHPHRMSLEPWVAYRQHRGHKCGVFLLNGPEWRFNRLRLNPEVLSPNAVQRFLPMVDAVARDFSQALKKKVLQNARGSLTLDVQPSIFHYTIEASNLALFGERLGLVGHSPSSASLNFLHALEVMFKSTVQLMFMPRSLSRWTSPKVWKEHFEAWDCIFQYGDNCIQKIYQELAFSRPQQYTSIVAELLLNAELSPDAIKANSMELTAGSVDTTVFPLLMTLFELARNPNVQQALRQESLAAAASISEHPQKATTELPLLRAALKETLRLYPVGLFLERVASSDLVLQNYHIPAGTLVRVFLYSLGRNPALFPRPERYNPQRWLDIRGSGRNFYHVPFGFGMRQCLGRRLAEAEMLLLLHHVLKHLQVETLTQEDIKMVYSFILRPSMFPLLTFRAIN

[3] = target: T1, Cytochrome P450 11B2, mitochondrial; experiment: Inhibition of human CYP11B2 expressed in V79 11B2 cells
[4] = Permeability in Caco-2 cell; conditions: human
[5] = Half life in rat liver microsome; format: ADME; conditions: liver microsomes

Row | Structure (SMILES) | inhibition at 0.5 µM [1] [%] | IC50 [2] [µM] | IC50 [3] [µM] | Papp [4] [×10⁻⁶ cm/s] | half-life [5] [h]
1 | CCC1CC(c2cccnc2)=Cc2ccccc21 (stereo not given) | 20 | 1.61 | 0.176 | – | –
2 | C(=C/c1cccnc1)/c1ccccc1 | 54 | 0.288 | 0.735 | – | –
3 | COc1ccc2c(c1)C=C(c1cccnc1)CC2 | – | – | 0.045 | – | –
4 | COc1ccc2c(c1)CCC(c1cccnc1)=C2 | 98 | – | – | 13.5 | 1.12
5 | COc1ccc2c(c1)CCC(n1ccnc1)=C2 | – | – | 0.411 | – | –
6 | C(=C\c1cccnc1)/c1ccccc1 | 25 | – | – | – | –
7 | C1=C(n2ccnc2)CCc2ccccc21 | – | – | 0.334 | – | –
8 | C1=C(n2ccnc2)Cc2ccccc21 | 33 | – | 0.448 | – | –
9 | COc1ccc2c(c1)CCC(c1ccncc1)=C2 | 15 | 2.53 | 2.83 | – | –
10 | CC(C(=O)O)c1cccc(C(=O)c2ccccc2)c1 (stereo not given) [KETOPROFEN] | – | – | – | 25.7 | –
11 | C[C@]12CC[C@H]3[C@@H](CCC4=CC(=O)CC[C@@]43C)[C@@H]1CC[C@@H]2O [TESTOSTERONE] | – | – | – | 9.4 | –
